Data on 91 molecules can be found in a melting point compilation (Tetko et al.; mined from patent text by program, amines drawn as free bases though some values may be those of a salt).

The structures appear in SMILES notation.

Broadly, the melting point is the temperature of the solid-liquid transition. `C1=C2c3ccccc3C3CC2(CN1Cc1ccccc1)c1ccccc13` (stereo unspecified) registered a melting point of 135 to 145 °C.
Consider `COc1cccc2c1C(=O)c1c(OC)cc(C#N)cc1C2=O`, for which the melting point was in the range of 266 to 268 °C.
As for `CCCCNc1n[nH]c2c1c(=O)n(CCC)c1ccccc21`, the melting point lay within 169 to 172 °C.
Consider `Cc1cc(-c2ccc(C(F)(F)F)cc2)cc(-c2cccc(-c3ccnc(N)c3)n2)n1`, for which the melting point is 160 °C.
Molecule `Cc1c(C)n(CC2CC2C)c2c(OCc3ccc(F)cc3)nncc12` (stereo unspecified) registered a melting point of 114 to 115 °C.
For the molecule `Cc1nc(NC(=O)c2cccc(S(C)(=O)=O)c2)sc1C(=O)NCc1ccccc1`, the melting point lay within 111 to 113 °C.
As for `COc1cccc(-n2c(-c3sc(Nc4ccccc4)nc3-c3ccccc3)nc3ccccc3c2=O)c1`, the melting point fell in the range of 250 to 252 °C.
Molecule `CCOC(Cc1cnc2ccc(OCc3ccc([N+](=O)[O-])cc3)cc2c1)C(=O)O` (stereo unspecified) showed a melting point of 169 to 174 °C.
As to `Nc1ncnc2c1ncn2[C@H]1C=C[C@@H](O)CC1` (racemic), the melting point was 181 to 183 °C.
In turn, `CCCCCCCCCC[C@@H]1C(=O)OC(c2ccccc2)=C[C@@H]1C(=O)OC` gave a melting point of 108 to 111 °C.
As to `Oc1c(CN2CCCC2)cc(Nc2ccnc3cc(C(F)(F)F)ccc23)cc1CN1CCCC1`, the melting point is 56 to 58 °C.
In turn, `Nc1nc2c(s1)CCc1nc3ccccn3c1-2` returned a melting point of 249 °C.
Regarding `C#CC1(OC(=O)CC)C(COC(=O)c2ccc(Cl)cc2)OC(n2ccc(=O)[nH]c2=O)C1OC(=O)CC` (stereo unspecified), the melting point lay within 208 to 210 °C.
In turn, `N#Cc1ccc2c(c1)CC[C@@H]1CC(=O)CC[C@@]21Cc1ccccc1` showed a melting point of 128 to 129 °C.
Take `Cc1cccc(CC(=O)N[C@H]2C[C@H](C(=O)O)Nc3cc(Cl)cc(Cl)c32)c1` (relative stereo): the melting point was in the range of 169 to 171 °C.
Molecule `O=C1Nc2ccccc2C(c2ccccc2)N1CCO` (stereo unspecified) registered a melting point of 141 °C.
The molecule `Oc1cnc(C2CCCCC2)nc1` registered a melting point of 163 °C.
The molecule `CCOC(=O)C1(c2ccccc2)CCC=CC1OC(C)=O` (stereo unspecified) registered a melting point of 72 to 73 °C.
Regarding `c1ccc2c(c1)nc(-c1ccc3c(c1)OCO3)n2CCC1CCCCC1`, the melting point was in the range of 110 to 111 °C.
`CC(=O)c1ccc(N)c(Br)c1` displayed a melting point of 59 to 62 °C.
In turn, `CC1(C)Cc2nc(N3CCOc4ccc(Br)cc43)sc2C(=O)N1` gave a melting point of 155 °C.
For `N#Cc1ccccc1C=CCN1CCc2nc(N)sc2CC1`, the melting point lay within 140 to 144 °C.
The molecule `CC1c2ccccc2Cn2cc3c(c21)C(=O)c1ccccc1C3=O` (stereo unspecified) came in with a melting point of 215 to 218 °C.
Next, `Cc1ccccc1Cc1ccc(Cl)nn1`: 73.5 °C; `CC12CCC(=O)C=C1CCC1C2=CCC2(C)C(C#N)=CCC12` (stereo unspecified): 148 to 150 °C; `O=C(c1ccc(Cl)cc1)c1ccc(N2N=CCNC2=O)cc1Cl`: 158 to 159 °C.
The molecule `O=CC(=C(c1ccc(F)cc1)c1ccc(F)cc1)n1cnnn1` came in with a melting point of 161 °C.
In turn, `CCc1nc2ccc(Br)cc2c2ccc(F)cc12` came in with a melting point of 111 °C.
`CC(CC(=O)O)CC(=O)Nc1ccc(Cl)cc1` (stereo unspecified) yielded a melting point of 116 to 118 °C.
Regarding `CCOC(=O)N1CCc2[nH]cc3c(=O)n(-c4ccccc4)nc-3c2C1`, the melting point was 236 to 238 °C.
`CNc1ncn(-c2c(Cl)cccc2Cl)c(=O)n1` yielded a melting point of 270 °C.
`Cc1nc(-n2cc(CCC3CCCCC3)nn2)sc1C(=O)NCc1ccccc1` had a melting point of 82 to 84 °C.
With `CN1CCN(c2ccc([N+](=O)[O-])cc2)C1=O`, the melting point fell in the range of 207 to 208 °C.
In the case of `C[C@@H]1c2cccn2-c2ccc(F)cc2N1C(=O)c1ccc(O)cc1`, the melting point fell in the range of 125 to 129 °C.
Next, `Cc1cc(C)c(C(=O)c2c(C)cccc2C)c(OCC(O)CNC(C)C)c1` (stereo unspecified): 102 to 104 °C; `O=[N+]([O-])CS(=O)c1cccc2c1oc1ccccc12` (stereo unspecified): 174 to 176 °C; `Cc1nc(-c2cccc(C(=O)O)c2)sc1C(=O)O`: 295 to 296 °C.
For `O=c1oc2c(c(O)c1C(c1ccccc1)C1CC1)CCCCC2C(O)C1CC1` (stereo unspecified), the melting point lay in the range of 88 to 90 °C.
The molecule `NC(=O)CNC(=O)c1cc(-c2cccc3cc(Cc4cc(F)cc(Cl)c4)sc23)ccc1F` had a melting point of 129 to 130 °C.
With `Cc1ccc(SC2OC(COC(=O)c3ccccc3)C(O)C(OC(=O)c3ccccc3)C2OC(=O)c2ccccc2)cc1` (stereo unspecified), the melting point came to 197 °C.
The molecule `Cc1cccc2sc3ccccc3c(=O)c12` gave a melting point of 107 to 132 °C.
Molecule `COC(=S)c1c[nH]c(-c2ccccc2)c1` displayed a melting point of 107 to 109 °C.
Take `CC(C)Cc1ncn(C(C)C(O)(Cc2nc[nH]n2)c2ccc(Cl)cc2)n1` (stereo unspecified): the melting point was 140 to 141 °C.
Take `FC(F)(F)c1cccc(C2=CCN(CCc3ccc(-c4ccccc4)cc3)CC2)c1`: the melting point was 114 to 116 °C.
For the molecule `CC(C)(COc1ccccc1)C(=O)c1ccc(Br)cc1`, the melting point was in the range of 73 to 74 °C.
Regarding `Cc1nc(-n2cc(-c3cccnc3)nn2)sc1C(=O)NCc1ccccc1`, the melting point was in the range of 117 to 119 °C.
In turn, `COCCc1nc2c(N)nc3cc(OCc4cccc([N+](=O)[O-])c4)ccc3c2n1CC(C)(C)O` gave a melting point of 125 to 127 °C.
`Cc1ccc(-c2ccc(C(=O)Nc3ccc4nc(CN(C)C)ccc4c3)cn2)cc1` displayed a melting point of 220 to 222 °C.
In the case of `CCCc1ccc(C=Nc2ccc(C#N)cc2)cc1`, the melting point is 64.8 to 65.5 °C.
Regarding `O=C(NCc1ccccc1)c1ccccc1-c1ccccc1CNS(=O)(=O)c1cccc([N+](=O)[O-])c1`, the melting point turned out to be 175 °C.
In turn, `COC(=O)c1cc(O)ccc1NC(=O)c1ccc(Cl)cc1Cl` yielded a melting point of 181 to 182 °C.
Regarding `Cc1cc2c(cc1F)NC(=O)C2`, the melting point lay in the range of 168 to 171 °C.
In the case of `CCCn1c(=O)c(-c2c(Cl)cccc2Cl)cc2cnc(N)nc21`, the melting point lay in the range of 196 to 197 °C.
The molecule `COc1ccc(-c2ccnc3c(C(N)=O)ncn23)cc1` had a melting point of 246 to 249 °C.
As for `N#Cc1ccc(N)cc1N`, the figure is 102 to 103 °C; as for `COc1ccc(N2CCN(c3c(C)c(C)c4c(c3C)C(N3CCN(Cc5ccccc5)CC3)C(C)(C)O4)CC2)cc1` (stereo unspecified), 112 to 116 °C.
Next, `C=S1C(=NC(F)(F)F)C(=NC(F)(F)F)N(c2ccccc2)C1C(C)=O` (stereo unspecified): 189 to 191 °C; `Nc1nc(COCc2ccccc2)nc2nccnc12`: 112 to 114 °C.
In the case of `COC(=O)c1cc(F)c(N2CCC(N)C2)nc1Nc1ccc(F)cc1F` (stereo unspecified), the melting point lay in the range of 139 to 140 °C.
Molecule `CCC(=O)N(C)c1cccc(-c2ccc3nnc(NC)n3n2)c1` gave a melting point of 212 to 213 °C.
With `Cn1ccnc1-c1ccccc1N`, the melting point was 152 to 153 °C.
As for `Sc1nncn1Cc1ccccc1`, the figure is 124 to 125 °C; as for `O=C(c1ccccc1)c1ccc(O)c(Cl)c1`, 180 °C.
`CC1(COC(=O)Oc2c(F)c(F)c(F)c(F)c2F)COC(=O)OC1` gave a melting point of 130 to 131 °C.
`CCC(=O)NN=C(c1ccc(Cl)cc1)c1ccc(OS(C)(=O)=O)cc1` displayed a melting point of 128 to 144 °C.
The molecule `CC(=O)NCC1CN(c2ccc(N3CCN(C(=O)CCN4CCOCC4)CC3)c(F)c2)C(=O)O1` (stereo unspecified) showed a melting point of 209 to 210 °C.
Turning to `CC(C(N)=O)c1ccc2c(c1)C(=O)Cc1cc(F)ccc1S2` (stereo unspecified), the melting point is 224 to 225 °C.
In the case of `CC(C)c1nc(C(C)C)c(CN2CCC(N3CCCCC3)CC2)c(-c2ccc(F)cc2)c1CO`, the melting point lay in the range of 143 to 145 °C.
Consider `COc1ccc(C(=O)c2cccc(Br)c2F)cc1`, for which the melting point fell in the range of 88 to 90 °C.
As for `O=C(O)c1cnn2c(C(F)F)cc(-c3ccc(Cl)c(Cl)c3)nc12`, the figure is 263 °C; as for `Nc1nc2ccc(Cc3ccccc3)cc2s1`, 173 to 175 °C; as for `CCOC(=O)CC(O)CCCCCNC(=O)OCc1ccccc1` (stereo unspecified), 47 to 50 °C.
As for `COc1ccc(OC)c(Nc2nc(-c3ccc(F)cc3)cs2)c1`, the figure is 160 °C; as for `NC(=O)N1C[C@@H](O)[C@H](Oc2ccc(Cl)cc2)C1` (relative stereo), 223 to 225 °C; as for `CC1(c2ccccc2)Nc2ccc3c(c2N1)C(=O)c1ccccc1C3=O` (stereo unspecified), 368 to 371 °C.
Consider `CC(=O)Oc1ccc2c(c1)Cc1cc(OC(C)=O)ccc1-2`, for which the melting point was 168 °C.
Next, `O=S(=O)(c1ccc(Cl)cc1)C(c1cc(F)ccc1F)c1cc(NCc2ccncc2)ncc1Cl` (stereo unspecified): 141 to 142 °C.
In the case of `Cc1ccc2[nH]c3c(c2c1)C(C(=O)O)CCC3` (stereo unspecified), the melting point is 194 to 197 °C.
The molecule `Cc1ccc2c(c1)C=C(C(=O)O)C(C(F)(F)F)O2` (stereo unspecified) came in with a melting point of 192 to 193 °C.
Molecule `CN1CCCCc2[nH]c3ccccc3c2CC1` had a melting point of 128 to 131 °C.
With `Oc1ccc2c(c1)COc1cc3cc(O)ccc3cc1-2`, the melting point was in the range of 231 to 233 °C.
The molecule `CC(=O)OC(c1ccccc1)C1C(=O)NC1S(C)(=O)=O` (mixture of isomers) gave a melting point of 178 to 182 °C.
On to `CCCc1nc2ccc(NS(C)(=O)=O)cc2n1Cc1ccccc1Cl`, for which the melting point was 191 to 193 °C.
The molecule `C#CCNC(=O)c1ccccc1Nc1nc(Cl)ncc1Cl` came in with a melting point of 188 to 191 °C.
Next, `CCOCc1nc2c(N)nc3cccnc3c2n1CCCCS(=O)(=O)NC`: 148 to 150 °C; `COc1ccc(-c2cc(C(F)F)nn2-c2ccc(S(N)(=O)=O)c(F)c2)cc1F`: 167 to 169 °C.
Turning to `CN1C(=O)C2(COc3cc4c(cc32)OCCO4)c2c(O)cccc21` (stereo unspecified), the melting point is above 250 °C.
As to `CCN(CC)C(=O)n1ccc(S(=O)(=O)c2cccc(Cl)c2Cl)n1`, the melting point was in the range of 60 to 61.5 °C.
Molecule `CC(C)(C)NS(=O)(=O)c1ccccc1C(=O)CF` had a melting point of 126 °C.
In turn, `CCCCS(=O)(=O)Oc1ccc(CCOc2ccc(/C=C(\OCC)C(=O)O)cc2OC)cc1` displayed a melting point of 94 °C.
`COc1ccccc1-c1coc2cc(O)ccc2c1=O` came in with a melting point of 222 to 224 °C.
